One test has as its system CaM. Description: ITC: binding of MBR (IQ motif) peptides to CaM. Particulars: VP-ITC, 25°C, 10 µM CaM in cell, 150 µM IQ peptide in syringe, Buffer A: 20 mM imidazole pH 8.0, 100 mM NaCl, 2 mM EGTA, in words, Fig. 3B vs 3A. The protocol: Different lengths of Nm and Ng IQ motif peptides were commercially synthesized and obtained from GL BiochemLtd (Shanghai, China). Stock solutions of 1 mM of Nm/Ng IQ peptides were prepared by dissolving the appropriate amount of peptide in 20 mM imidazole pH 8.0, 100 mM NaCl and 2 mM EGTA (Buffer A). After mixing, the peptide stock solutions were stored at 4°C to ensure complete peptide solubility. The choice of buffer is based on obtaining maximum solubility of the peptides. NOTE: Synthetically derived peptides should be verified for solubility when dissolved in a buffer of interest. Sometimes preparing high concentrations of peptide stock solution may result in precipitation. Lower concentrations of stock solutions can be prepared to avoid this problem.
• 1. ITC assay: Identification of MBR (minimum binding region) from Nm and Ng. • 1.1. Wildtype (WT) CaM, Nm and Ng are purified, as described previously. • 1.2. Prepare 10 µM of full length Nm/Ng and 150 µM of CaM in Buffer A (Recipes). The Schematic representation of the ITC experimental setup is depicted in Figure 2A. • 1.3. Degas all solutions for 10–20 min using a vacuum pump and centrifuge in order to avoid bubble formation in the sample cell during the experiment. • 1.4. […]

The test system of a further test is C-lobe of CaM. To be noted: previous findings; ref [34]-[36]; cited from earlier work. From the text:
The Gly-linker strategy has been previously used to stabilize various protein complexes for structural studies. We have adopted this procedure to determine the crystal structure of CaM in complex with two of its intrinsically unstructured binding partners, Nm and Ng, and further validated the findings in vitro and in vivo [19]. We identified the MBR of Nm and Ng that interacted with CaM using ITC experiments using various peptide lengths of Nm/Ng. […] We employed known s ...

We go through 3 substances from paper PMC4789767, “Application of linker technique to trap transiently interacting protein complexes for structural studies” (Journal of Biological Methods, 2016).

Consider “Minimum Binding Region (MBR) peptide of Nm: Optimized minimum binding region peptide (IQ motif) of Neuromodulin; commercially synthesized”, for which, in the test with CaM, the “binding with CaM compared with full length Nm” value is “mimics full length Nm in terms of binding with CaM”.
As for “Ng: Full-length Neurogranin (accession no NP_071312), intrinsically disordered neuron-specific substrate protein”, in the test with C-lobe of CaM, the “interaction site on CaM” value was “interacted with the C-lobe of CaM”.
Regarding “Nm: Full-length Neuromodulin (accession no NP_032109), intrinsically disordered neuron-specific substrate protein”, the “interaction site on CaM” value with C-lobe of CaM is on record as “interacted with the C-lobe of CaM”.
